The target of the assay is T1, Recombinant HDAC9 isoform 4 (Homo sapiens, UniProt Q9UKV0).
T1 construct: purchased BPS Bioscience
T1 sequence (Q9UKV0 1-1066 isoform Q9UKV0-5): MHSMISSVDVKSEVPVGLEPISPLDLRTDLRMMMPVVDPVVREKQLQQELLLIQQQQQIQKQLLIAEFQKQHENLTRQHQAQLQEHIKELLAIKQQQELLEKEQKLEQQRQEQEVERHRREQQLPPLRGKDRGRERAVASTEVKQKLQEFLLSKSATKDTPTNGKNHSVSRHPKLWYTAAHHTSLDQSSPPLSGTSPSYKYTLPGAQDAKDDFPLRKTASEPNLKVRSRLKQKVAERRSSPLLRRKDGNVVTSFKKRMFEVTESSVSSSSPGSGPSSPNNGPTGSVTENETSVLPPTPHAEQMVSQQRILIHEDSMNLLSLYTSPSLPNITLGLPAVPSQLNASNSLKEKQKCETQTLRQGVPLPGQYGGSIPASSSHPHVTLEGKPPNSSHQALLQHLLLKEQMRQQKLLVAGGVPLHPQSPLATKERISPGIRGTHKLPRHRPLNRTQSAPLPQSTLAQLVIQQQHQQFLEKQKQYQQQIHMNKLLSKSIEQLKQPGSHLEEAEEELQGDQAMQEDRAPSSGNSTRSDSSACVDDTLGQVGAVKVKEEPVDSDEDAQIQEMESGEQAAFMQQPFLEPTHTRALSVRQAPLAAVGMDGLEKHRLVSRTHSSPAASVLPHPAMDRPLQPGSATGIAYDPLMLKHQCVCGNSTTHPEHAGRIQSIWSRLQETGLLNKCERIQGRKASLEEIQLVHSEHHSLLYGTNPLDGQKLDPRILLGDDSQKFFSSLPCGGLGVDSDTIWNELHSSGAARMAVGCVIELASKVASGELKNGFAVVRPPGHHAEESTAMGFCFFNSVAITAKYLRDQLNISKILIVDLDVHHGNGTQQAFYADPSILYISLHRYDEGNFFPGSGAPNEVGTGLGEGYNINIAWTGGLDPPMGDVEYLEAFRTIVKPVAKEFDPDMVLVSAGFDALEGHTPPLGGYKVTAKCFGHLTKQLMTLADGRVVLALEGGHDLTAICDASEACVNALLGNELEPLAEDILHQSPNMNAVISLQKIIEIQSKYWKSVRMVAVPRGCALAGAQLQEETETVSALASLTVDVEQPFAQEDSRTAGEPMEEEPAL
Nature of the assay: Histone Deacetylase 9 (HDAC9) inhibition assay, fluorogenic substrate. The format is biochemical. To be noted: mean of a minimum of 2 experiments; 11 point 3x dilution series from 100 uM; Class IIa HDAC-specific fluorogenic substrate 4.5 uM; read-out: mean pIC50, inhibition of HDAC9 (converted). The source says: Histone Deacetylase 9 (HDAC9) Inhibition Assay:
Novel histone deacetylase 9 (HDAC9) inhibitors were characterized in an in vitro biochemical functional assay. The assay measures the increased fluorescent signal due to deacetylation, by HDAC9, of a fluorogenic substrate. The commercial available substrate is Class IIa HDAC-specific and contains an acetylated lysine residue and would releases the fluorescent signal upon trypsin cleavage after deacetylation.
Specifically, test compounds diluted to various concentrations in 100% DMSO are first dispensed into 384-well assay plates. Recombinant HDAC9 isoform 4 (purchased from BPS Bioscience) in complete assay buffer (50 mM Tris-HCl, pH 8.0, 137 mM NaCl, 2.7 mM KCl, 1 mM MgCl2, 0.05% BSA & 0.005% Tween 20) were then added to each well (5 uL/well) using Multidrop Combi (Thermo Scientific), followed by 5 uL/well substrate (purchased from BPS Bioscience, 4.5 uM final). After 45 minutes incubation at room temperature, 10 uL 2× developer solution (assay buffer with 40 uM Trypsin and 20 uM Trichostatin A) was added. The plates were then incubated 1 hour at room temperature before reading in fluorescent intensity mode at 450 nm in an Envision (Perkin Elmer) plate reader. Percent Inhibition of HDAC9 activity by compounds in each test wells was calculated by normalizing to fluorescent signal in control wells containing DMSO only. The pIC50s value of test compounds were calculated from non-linear curve fitting, using ActivityBase5 data analysis tool (IDBS), from 11 point 3× dilution series starting from 100 uM final compound concentration.
For dose response experiments, normalized data were fit by ABASE/XC50 using the equation y=a+(b−a)/(1+(10^×/10^c)^d), where a is the minimum % activity, b is the maximum % activity, c is the pIC50, d is the Hill slope.
The pIC50s are averaged to determine a mean value, for a minimum of 2 experiments. […] For instance, the compounds of Examples 1, 38, 61 and 79 inhibited HDAC9 in the above method with a mean pIC50 of >6.
`O=C(c1cccc(-c2noc(C(F)(F)F)n2)c1)N1CCCN(c2ccc(C(F)(F)F)cn2)CC1` [Example 1, (3-(5-(Trifluoromethyl)-1,2,4-oxadiazol-3-yl)phenyl)(4-(5-(trifluoromethyl)pyridin-2-yl)-1,4-diazepan-1-yl)methanone]: the IC50 is under 1000 nM.

On to `N#Cc1ccc(N2CCN(C(=O)c3cccc(-c4ccc(C(=O)C(F)(F)F)s4)c3)CC2)nc1` [Example 61, 6-(4-(3-(5-(2,2,2-Trifluoroacetyl)thiophen-2-yl)benzoyl)piperazin-1-yl)nicotinonitrile], for which the IC50 is under 1000 nM.

On to `O=C(c1cccc(-c2noc(C(F)(F)F)n2)c1)N1CC(Cc2nc(-c3ccc(F)cc3)cs2)C1` [Example 79, (3-((4-(4-Fluorophenyl)thiazol-2-yl)methyl)azetidin-1-yl)(3-(5-(trifluoromethyl)-1,2,4-oxadiazol-3-yl)phenyl)methanone], for which the IC50 is under 1000 nM.

Regarding `N#Cc1ccc(N2CCN(C(=O)c3cccc(-c4noc(C(F)(F)F)n4)c3)CC2)cc1` [Example 38, 4-(4-(3-(5-(Trifluoromethyl)-1,2,4-oxadiazol-3-yl)benzoyl)piperazin-1-yl)benzonitrile], the IC50 is under 1000 nM.

Source of the values: patent publication US8981084B2, “Oxadiazole HDAC inhibitors” (Tempero Pharmaceuticals, Inc., priority 2011, dated 2015).
